Data taken from patent US9937145B2, “Sulfamate derivative compound for use in preventing or treating epilepsy” (Bio-Pharm Solutions Co., Ltd., priority 2013, dated 2018).
Read-outs that look alike come from different tables or passages of the source.

Test system: male ICR mice
Test: MES test (anti-epilepsy activity), mice, oral (mMES po)
Type: in vivo
Conditions: Mus musculus; for responders at 50 mg/kg: injection amount 50 mg/kg; for responders at 80 mg/kg: injection amount 80 mg/kg; for responders at 100 mg/kg: injection amount 100 mg/kg; for responders at 30 mg/kg: injection amount 30 mg/kg; for ED50: mice, at peak time
Procedure: Biological Experimental Example. 1: Measurement of Anti-Epilepsy Activity (MES-Test)
In the MES test (Ref., G. Villetti et al. Neuropharmacology 40(2001) 866-878), an electrical stimulus (mice: 50 mA, 60 Hz, 0.2 sec, and rats: 150 mA, 60 Hz, 0.2 sec in the test animal) supplied by an 11 A Shocker (IITC Life Science Company) was delivered through corneal electrodes. All mice or rats assigned to any electroshock at peak time were treated with each test compound sample which was dissolved in 20% tween 80 prepared by saline solvent applied orally before the test. […] Three doses of the test sample were administered orally to 9-18 animals (3-6 mice per dose) for evaluating the respective doses at which 50% of the animals were protected from seizure (ED50). The ED50 value (median effective close) was calculated by Litchfield and Wicoxon log-probit method which is a dose-response relationship. Experimental animals, male ICR mice and male SD rats, were purchased from OrientBio, Samtako, or Nara Biotech, Korea, and housed in cages (4-5 mice or 3 rats per cage) for 4-5 days. The range of mice body weight was between 19 and 25 grams and range of rats body weight was between 100 and 130 grams.
The obtained results are shown as mean±sem. The difference between the groups was statistically analyzed by ANOVA, and then further examined by Dunnett's test or Bonferroni test. If p is less than 0.05, it was determined that the difference between the groups had statistical significance.
The results of anti-epileptic activity of the sulfamate derivative compounds measured in the above Experimental Example are shown in the following Tables 4 and 5.

[1] = 3 mice, read-out: mMES(po) Protection %
[2] = 4 mice, read-out: mMES(po) Protection %

## Cc1ccccc1[C@@H]1OC(C)(C)O[C@H]1COS(N)(=O)=O [Example 92, ((4S, 5S)-5-(2-methylphenyl)-2,2-dimethyl-1,3-dioxolan-4-yl)methyl sulfamate]
[1]
  responders at 50 mg/kg: 100%

## NS(=O)(=O)OC[C@H]1OC2(CCCC2)O[C@@H]1Cc1ccccc1Cl [Example 150, ((2R, 3R)-3-(2-chlorobenzyl)-1,4-dioxaspiro[4,4]nonan-2-yl)methyl sulfamate]
[1]
  responders at 50 mg/kg: 100%

## CC1(C)O[C@H](CCOS(N)(=O)=O)[C@@H](Cc2ccccc2)O1 [Example 114, 2-((4R, 5R)-5-benzyl-2,2-dimethyl-1,3-dioxolan-4-yl)ethyl sulfamate]
[1]
  responders at 80 mg/kg: 33.3%

## CCC1(CC)O[C@@H](CCOS(N)(=O)=O)[C@H](c2ccccc2Cl)O1 [Example 156, 2-((4S, 5S)-5-(2-chlorophenyl)-2,2-diethyl-1,3-dioxolan-4-yl)ethyl sulfamate]
[1]
  responders at 80 mg/kg: 100%

## NS(=O)(=O)OC[C@H]1OC2(CCCCC2)O[C@@H]1Cc1ccccc1 [Example 128, ((2R, 3R)-3-benzyl-1,4-dioxaspiro[4,5]decan-2-yl)methyl sulfamate]
[1]
  responders at 50 mg/kg: 100%

## NS(=O)(=O)OC[C@H]1OC2(CCCC2)O[C@@H]1Cc1ccccc1 [Example 126, ((2R, 3R)-3-benzyl-1,4-dioxaspiro[4,4]nonan-2-yl)methyl sulfamate]
[1]
  responders at 50 mg/kg: 100%

## CCC1(CC)O[C@@H](COS(N)(=O)=O)[C@H](c2ccccc2Cl)O1 [Example 8, ((4S, 5S)-5-(2-chlorophenyl)-2,2-diethyl-1,3-dioxolan-4-yl)methyl sulfamate]
[2]
  responders at 50 mg/kg: 100%

## CC1(C)O[C@H](c2cnc(Cl)s2)[C@@H](COS(N)(=O)=O)O1 [Example 165, ((4R, 5S)-5-(2-chlorothiazol-5-yl)-2,2-dimethyl-1,3-dioxolan-4-yl)methylsulfamate]
[1]
  responders at 100 mg/kg: 100%

## CC1(C)OC(COS(N)(=O)=O)C(c2cncnc2)O1 (centres unmarked) [Example 175]
[1]
  responders at 100 mg/kg: 100%

## NS(=O)(=O)OCC[C@@H]1OC2(CCCC2)O[C@H]1c1ccccc1Cl [Example 158, 2-((2S, 3S)-3-(2-chlorophenyl)-1,4-dioxaspiro[4,4]nonan-2-yl)ethyl sulfamate]
[1]
  responders at 50 mg/kg: 100%

## NS(=O)(=O)OCC[C@@H]1OC2(CCCC2)O[C@H]1c1ccccc1 [Example 134, 2-((2S, 3S)-3-phenyl-1,4-dioxaspiro[4,4]nonan-2-yl)ethyl sulfamate]
[1]
  responders at 50 mg/kg: 100%

## CC1(C)O[C@@H](COS(N)(=O)=O)[C@H](c2ccccc2)O1 [Example 106, ((4S, 5S)-5-phenyl-2,2-dimethyl-1,3-dioxolan-4-yl)methyl sulfamate]
[1]
  responders at 30 mg/kg: 100%

## CC1(C)O[C@H](CCOS(N)(=O)=O)[C@@H](Cc2ccccc2Cl)O1 [Example 138, 2-((4R, 5R)-5-(2-chlorobenzyl)-2,2-dimethyl-1,3-dioxolan-4-yl)ethyl sulfamate]
[1]
  responders at 80 mg/kg: 33.3%

## CCC1(CC)O[C@H](COS(N)(=O)=O)[C@@H](Cc2ccccc2Cl)O1 [Example 148, ((4R, 5R)-5-(2-chlorobenzyl)-2,2-diethyl-1,3-dioxolan-4-yl)methyl sulfamate]
[1]
  responders at 50 mg/kg: 33.3%

## CCC1(CC)O[C@H](CCOS(N)(=O)=O)[C@@H](Cc2ccccc2)O1 [Example 116, 2-((4R, 5R)-5-benzyl-2,2-diethyl-1,3-dioxolan-4-yl)ethyl sulfamate]
Injection amount 150 mg/kg, 3 mice, read-out: mMES(po) Protection %
  responders at 150 mg/kg: 33.3%

## Nc1ccccc1[C@@H]1OC(c2ccccc2)O[C@H]1COS(N)(=O)=O (stereo partly drawn) [Example 76, ((4S, 5S)-5-(2-aminophenyl)-2-phenyl-1,3-dioxolan-4-yl)methyl sulfamate]
[1]
  responders at 50 mg/kg: 66%

## NS(=O)(=O)OCC[C@H]1OC2(CCCCC2)O[C@@H]1Cc1ccccc1 [Example 120, 2-((2R, 3R)-3-benzyl-1,4-dioxaspiro[4,5]decane-2-yl)ethyl sulfamate]
[1]
  responders at 80 mg/kg: 66.6%

## CC1(C)O[C@H](COS(N)(=O)=O)[C@@H](Cc2ccccc2)O1 [Example 122, ((4R, 5R)-5-benzyl-2,2-dimethyl-1,3-dioxolan-4-yl)methyl sulfamate]
[1]
  responders at 50 mg/kg: 100%

## CCC1(CC)O[C@H](CCOS(N)(=O)=O)[C@@H](Cc2ccccc2Cl)O1 [Example 140, 2-((4R, 5R)-5-(2-chlorobenzyl)-2,2-diethyl-1,3-dioxolan-4-yl)ethyl sulfamate]
[1]
  responders at 50 mg/kg: 33.3%

## NS(=O)(=O)OC[C@@H]1OC2(CCCCC2)O[C@H]1c1ccccc1 [Example 112, ((2S, 3S)-3-phenyl-1,4-dioxaspiro[4,5]decan-2-yl)methyl sulfamate]
[1]
  responders at 50 mg/kg: 100%

## CC1(C)O[C@H](COS(N)(=O)=O)[C@H](c2ccccc2Cl)O1 [Example 161, ((4R, 5S)-5-(2-chlorophenyl)-2,2-dimethyl-1,3-dioxolan-4-yl)methyl sulfamate]
[1]
  responders at 100 mg/kg: 100%

## NS(=O)(=O)OCC[C@H]1OC2(CCCC2)O[C@@H]1Cc1ccccc1Cl [Example 142, 2-((2R, 3R)-3-(2-chlorobenzyl)-1,4-dioxaspiro[4,4]nonan-2-yl)ethyl sulfamate]
[1]
  responders at 80 mg/kg: 33.3%

## NS(=O)(=O)OCC[C@@H]1OC2(CCCCC2)O[C@H]1c1ccccc1 [Example 136, 2-((2S, 3S)-3-phenyl-1,4-dioxaspiro[4,5]decan-2-yl)ethyl sulfamate]
[1]
  responders at 50 mg/kg: 100%

## CCC1(CC)O[C@@H](COS(N)(=O)=O)[C@H](c2ccccc2N)O1 [Example 70, ((4S, 5S)-5-(2-aminophenyl)-2,2-diethyl-1,3-dioxolan-4-yl)methyl sulfamate]
[1]
  responders at 50 mg/kg: 100%

## NS(=O)(=O)OCC[C@H]1OC2(CCCC2)O[C@@H]1Cc1ccccc1 [Example 118, 2-((2R, 3R)-3-benzyl-1,4-dioxaspiro[4,4]nonan-2-yl)ethyl sulfamate]
[1]
  responders at 80 mg/kg: 66.6%

## NS(=O)(=O)OC[C@H]1OC2(CCCCC2)O[C@@H]1Cc1ccccc1Cl [Example 152, ((2R, 3R)-3-(2-chlorobenzyl)-1,4-dioxaspiro[4,5]decan-2-yl)methyl sulfamate]
[1]
  responders at 50 mg/kg: 66.6%

## CC1(C)O[C@@H](COS(N)(=O)=O)[C@H](c2c(Cl)cccc2Cl)O1 [Example 52, ((4S, 5S)-5-(2,6-dichlorophenyl)-2,2-dimethyl-1,3-dioxolan-4-yl)methyl sulfamate]
[1]
  responders at 50 mg/kg: 100%

## CC1(C)OC(COS(N)(=O)=O)C(c2ccncc2Cl)O1 (centres unmarked) [Example 173, (5-(3-chloropyridin-4-yl)-2,2-dimethyl-1,3-dioxolan-4-yl)methylsulfamate]
[1]
  responders at 100 mg/kg: 100%

## CC1(C)OC(COS(N)(=O)=O)C(c2cnccc2Cl)O1 (centres unmarked) [Example 174, (5-(4-chloropyridin-3-yl)-2,2-dimethyl-1,3-dioxolan-4-yl)methylsulfamate]
[1]
  responders at 100 mg/kg: 100%

## NS(=O)(=O)OCC[C@H]1OC2(CCCCC2)O[C@@H]1Cc1ccccc1Cl [Example 144, 2-((2R, 3R)-3-(2-chlorobenzyl)-1,4-dioxaspiro[4,5]decan-2-yl)ethyl sulfamate]
[1]
  responders at 100 mg/kg: 33.3%

## NS(=O)(=O)OCC[C@@H]1OC2(CCCCC2)O[C@H]1c1ccccc1Cl [Example 160, 2-((2S, 3S)-3-(2-chlorophenyl)-1,4-dioxaspiro[4,5]decan-2-yl)ethyl sulfamate]
[1]
  responders at 80 mg/kg: 66.6%

## NS(=O)(=O)OC[C@@H]1OC2(CCCC2)O[C@H]1c1ccccc1Cl [Example 10, ((2S, 3 S)-3-(2-chlorophenyl)-1,4-dioxaspiro[4,4]nonan-2-yl)methyl sulfamate]
[1]
  responders at 30 mg/kg: 66%

## CC1(C)OC(COS(N)(=O)=O)C(c2ccccc2Cl)O1 (mixture of isomers) [Example 3, (5-(2-chlorophenyl)-2,2-dimethyl-1,3-dioxolan-4-yl)methyl sulfamate(SS & RR mixture)]
  ED50: 14 mg/kg

## CC1(C)O[C@@H](CCOS(N)(=O)=O)[C@H](c2ccccc2Cl)O1 [Example 154, 2-((4S, 5S)-5-(2-chlorophenyl)-2,2-dimethyl-1,3-dioxolan-4-yl)ethyl sulfamate]
[1]
  responders at 50 mg/kg: 100%

## CC1(C)O[C@@H](COS(N)(=O)=O)[C@@H](c2ccccc2Cl)O1 [Example 162, ((4S, 5R)-5-(2-chlorophenyl)-2,2-dimethyl-1,3-dioxolan-4-yl)methyl sulfamate]
[1]
  responders at 100 mg/kg: 100%

## CC1O[C@@H](COS(N)(=O)=O)[C@H](c2ccccc2Cl)O1 (stereo partly drawn) [Example 6, ((4S, 5S)-5-(2-chlorophenyl)-2-methyl-1,3-dioxolan-4-yl)methyl sulfamate]
[1]
  responders at 50 mg/kg: 33%

## CC1(C)O[C@@H](COS(N)(=O)=O)[C@H](c2ccsc2)O1 [Example 171, ((4S, 5S)-2,2-dimethyl-5-(thiophen-3-yl)-1,3-dioxolan-4-yl)methylsulfamate]
  ED50: 43.3 mg/kg

## NS(=O)(=O)OC[C@@H]1OC2(CCCCC2)O[C@H]1c1ccccc1Cl [Example 12, ((2S, 3S)-3-(2-chlorophenyl)-1,4-dioxaspiro[4,5]decan-2-yl)methyl sulfamate]
[2]
  responders at 50 mg/kg: 100%
